In the RepoRT retention time repository:

Assay: RP, Thermo Scientific Hypersil GOLD, 1.9 µm, 40 °C, 0.4 mL/min; A: water + 0.1% formic acid, pH 3; B: acetonitrile + 0.1% formic acid, pH 3; gradient (min/%B) 0/0 1/0 11/100 13/100 14/0 16/0
Conditions: stereoisomer not certain

LC retention time	SMILES
0.82 min	NC(=O)c1ccc[n+](C2OC(COP(=O)(O)OP(=O)(O)OCC3OC(n4cnc5c(=O)[nH]cnc54)C(O)C3O)C(O)C2O)c1 (stereo not drawn) [NICOTINAMIDE HYPOXANTHINE DINUCLEOTIDE]
0.68 min	NC(=O)c1ccc[n+](C2OC(COP(=O)([O-])O)C(O)C2O)c1 (stereo not drawn) [NICOTINAMIDE MONONUCLEOTIDE]
0.83 min	NC(=O)c1cccnc1 [NICOTINAMIDE]
0.65 min	NCC(O)c1ccc(O)c(O)c1 (stereo not drawn) [NORADRENALINE]
1.67 min	CCCCC(N)C(=O)O (stereo not drawn) [NORLEUCINE]
0.82 min	CCCC(N)C(=O)O (stereo not drawn) [NORVALINE]
7.04 min	O=C1CC(c2ccc(O)cc2)Oc2cc(O)cc(O)c21 (stereo not drawn) [Naringenin]
0.83 min	O=C(O)c1ccc[n+]([O-])c1 [Nicotinic acid N-oxide]
0.81 min	O=C(O)c1cccnc1 [Nicotinic acid]
0.69 min	CC(=O)OCC(N)C(=O)O (stereo not drawn) [O-ACETYLSERINE]
0.61 min	NCCOP(=O)(O)O [O-PHOSPHOETHANOLAMINE]
0.82 min	NC(CCOC(=O)CCC(=O)O)C(=O)O (stereo not drawn) [O-SUCCINYL-HOMOSERINE]
12.1 min	CCCCCCCCC=CCCCCCCCC(=O)OCC(O)CO (stereo not drawn) [OLEOYL-GLYCEROL]
0.83 min	CCC(NC(=O)CCC(N)C(=O)O)C(=O)NCC(=O)O (stereo not drawn) [OPHTHALMATE]
0.77 min	O=C([O-])c1cc(=O)[nH]c(=O)[nH]1 [OROTATE]
0.82 min	O=C1CCC(C(=O)O)N1 (stereo not drawn) [OXOPROLINE]
6.74 min	CCCCCCCC(=O)OC(CC(=O)[O-])C[N+](C)(C)C [Octanoyl-L-carnitine]
0.67 min	OCC1OC(OCC2OC(O)(CO)C(O)C2O)C(O)C(O)C1O (stereo not drawn) [PALATINOSE]
11.7 min	CCCCCCC=CCCCCCCCC(=O)O [PALMITOLEATE]

LC retention time	SMILES
4.11 min	CC(C)(CO)C(O)C(=O)NCCC(=O)O (stereo not drawn) [PANTOTHENATE]
4.41 min	Cn1c(=O)[nH]c2ncn(C)c2c1=O [PARAXANTHINE]
12.5 min	CCCCCCCCCCCC=CCCCCC(=O)[O-] [PETROSELINATE]
6.21 min	Oc1ccccc1 [PHENOL]
10.3 min	O=CCc1ccccc1 [PHENYLACETALDEHYDE]
5.26 min	O=C(O)C(=O)Cc1ccccc1 [PHENYLPYRUVATE]
0.64 min	C[N+](C)(C)CCOP(=O)(O)O [PHOSPHORYLCHOLINE]
0.82 min	O=C([O-])c1ccccn1 [PICOLINATE]
0.69 min	O=C(O)C1CCCN1 (stereo not drawn) [PROLINE]
11.7 min	C=Cc1c(C)c2cc3[nH]c(cc4nc(cc5nc(cc1[nH]2)C(C)=C5CCC(=O)O)C(CCC(=O)O)=C4C)c(C)c3C=C [PROTOPORPHYRIN]
0.82 min	Nc1nc2nccnc2c(=O)[nH]1 [PTERIN]
0.81 min	c1ncc2[nH]cnc2n1 [PURINE]
0.54 min	NCCCCN [PUTRESCINE]
0.83 min	Cc1ncc(COP(=O)(O)O)c(C=O)c1O [PYRIDOXAL-PHOSPHATE]
0.72 min	Cc1ncc(CO)c(C=O)c1O [PYRIDOXAL]
0.59 min	Cc1ncc(CO)c(CN)c1O [PYRIDOXAMINE]
0.82 min	Cc1ncc(CO)c(CO)c1O [PYRIDOXINE]
4.3 min	O=C(O)c1ccc[nH]1 [PYRROLE-2-CARBOXYLATE]

SMILES	LC retention time
COc1cc(C(O)CN)ccc1O (stereo not drawn) [NORMETANEPHRINE]	0.82 min
NCCCNCCCN [NORSPERMIDINE]	0.49 min
O=C(O)CCCCCCCCCCCO [OMEGA-HYDROXYDODECANOATE]	7.84 min
NCC(O)c1ccc(O)cc1 (stereo not drawn) [P-OCTOPAMINE]	0.71 min
NCCc1ccccc1 [PHENETHYLAMINE]	4.03 min
NCC(O)c1ccccc1 (stereo not drawn) [PHENYLETHANOLAMINE]	2.24 min
